# Experimental data from US20210139846A1, “ENGINEERED CELLS, AND METHODS OF USING THE SAME” (Board of Supervisors of Louisiana State University and …, priority 2017, published 2021).
# Legend:
# AdipoR1 = biological target: T1, AdipoR1 (Homo sapiens, UniProt Q96A54); assay: DHA-d5 / AA-d8 uptake by hASCs overexpressing AdipoR1, LC-MS/MS, with adiporon (FIG. 11); assay type: cell-based
# T1 construct: host or cells: human adipose tissue-derived stem cells (hASC); human primary retinal pigment epithelial (ABC) cells
# T1 sequence (Q96A54 1-375): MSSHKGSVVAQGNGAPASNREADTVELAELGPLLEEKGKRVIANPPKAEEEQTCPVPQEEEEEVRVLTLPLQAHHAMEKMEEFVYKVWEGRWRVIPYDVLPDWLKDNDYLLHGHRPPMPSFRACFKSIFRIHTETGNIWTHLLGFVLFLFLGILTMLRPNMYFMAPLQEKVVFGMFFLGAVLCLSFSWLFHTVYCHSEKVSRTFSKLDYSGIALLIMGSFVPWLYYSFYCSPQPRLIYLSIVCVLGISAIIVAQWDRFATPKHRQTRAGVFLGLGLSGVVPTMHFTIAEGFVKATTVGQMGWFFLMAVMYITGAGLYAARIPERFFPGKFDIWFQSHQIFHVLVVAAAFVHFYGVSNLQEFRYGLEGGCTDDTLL
# Protocol: Stable clones of hASCs overexpressing AdipoR1 or mCherry following lentivirus transduction, were incubated overnight in the presence or not of DHA-d5 or AA-d8 (1 μM) and vehicle DMSO with various concentrations of AdipoR1 […] adiporon (1-50 μM). […] Compared to DHA-d5 uptake, levels of AA-d8 were extremely low under these conditions.
# ischemic stroke = assay: DHA administered icv after ischemic stroke (FIG. 7); assay type: in vivo, rats
# [1] = test system: neurons and neural stem/progenitor cells; conditions: cited from earlier work
# [2] = test system: human adipose tissue derived stem cells; assay: Chemical transdifferentiation of stem cells into neurons with DHA (FIG. 12); assay type: cell-based; conditions: 24 hours, induction media containing DHA (504) vs induction medium alone
# Protocol: Images were taken 24 hours following incubation in the presence of induction media containing or not containing DHA (504).
# [3] = test system: SD male rats, 2 h of MCAo; conditions: DHA systemically injected; reference 8; cited from earlier work
# [4] = test system: SD male rats, 2 h of MCAo; assay: 2 h MCAo by intraluminal suture, DHA 5 mg/kg IV (FIG. 16-23); assay type: in vivo
# Protocol: (11-12 weeks old); Model: 2 h of MCAo by intraluminal suture; DHA (5 mg/kg) or Saline treatments (IV)—at 3 h from onset of MCAo; BrdU labeling at days 4, 5, 6; Immunohistochemistry on week 2
# [5] = DHA 5 mg/kg IV, immunohistochemistry on week 2
smiles,measurement,setting,value
CCCCC/C=C\C/C=C\C/C=C\C/C=C\CCCC(=O)O [AA-d8],levels of AA-d8 compared to DHA-d5 uptake,AdipoR1; 1 μM AA-d8 overnight in hASCs,extremely low
"CC/C=C\C/C=C\C/C=C\C/C=C\C/C=C\C/C=C\CCC(=O)O [DHA, 4,7,10,13,16,19-docosahexanoic acid]",ischemic brain damage,"ischemic stroke; DHA at the site where GESC would be administered (icv), 7 days",reduced
same,behavioral functions,"ischemic stroke; DHA icv, 7 days",improves
same,protection by DHA administered icv,ischemic stroke; icv,protective
same,"neurite growth, synaptogenesis, synaptic protein expression and synaptic functions in hippocamal neuron","[1]; Cao, D et al., 2009",promotes
same,neurite outgrowth,"[1]; DHA supplementation, L. Dagai et al., 2009",accelerated
same,neuronal differentiation of neural stem cells,"[1]; M. Katakura et al., 2009",enhances
same,number of neurons derived from neural stem/progenitor cells,"[1]; Nobuyuki Sakayoti et al., 2011",increases
same,percentage of morphologically mature neurons,[2],strongly increased
same,neuroprotection against ischemic stroke,[3],neuroprotective
same,total neurologic deficits,[4]; DHA 5 mg/kg IV at 3 h from onset of MCAo vs saline,improved
same,cortical infarct volume,"[4]; DHA 5 mg/kg IV, histopathology",reduced
same,total infarct volume,"[4]; DHA 5 mg/kg IV, histopathology",reduced
same,"BrdU+/DCX+ cells in cortex, SVZ and DG",[4]; [5],increased
same,"BrdU+/NeuN+ cells in cortex, SVZ and DG",[4]; [5],increased
same,"BrdU+/ki-67+ cells in cortex, SVZ and DG",[4]; [5],increased
same,"neurogenesis in the DG, SVZ and peri-infarct area","[4]; proliferation, differentiation and migration of neural stem cells",increased
same,infarct volume,"[4]; rat, in vivo",reduced
same,neurobehavioral recovery,"[4]; rat, in vivo",promoted
O=C(COc1ccc(C(=O)c2ccccc2)cc1)NC1CCN(Cc2ccccc2)CC1 [adiporon],effect on DHA-d5 uptake of AdipoR1 transduced cells,"AdipoR1; adiporon 1-50 μM, 1 μM DHA-d5 overnight",further increased
